Source: PubChem BioAssay (NCI)
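Protocol summary: plate cells (96-well), add compound at 5 concentrations, incubate 48 h, interpolate endpoints linearly. Abbreviation: GI50, concentration required for 50% inhibition of growth. The concentration for full growth arrest is given as TGI.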

How the values were obtained:
Assay in all cases: NCI anticancer screen, dose series, 48 h
MDA-MB-231 breast = test system: MDA-MB-231 breast
HT29 colon = test system: HT29 colon
HCT-116 colon = test system: HCT-116 colon
CAKI-1 renal = test system: CAKI-1 renal
A498 renal = test system: A498 renal
ACHN renal = test system: ACHN renal
U251 CNS = test system: U251 CNS
SR leukemia = test system: SR leukemia
SK-MEL-2 melanoma = test system: SK-MEL-2 melanoma
SNB-19 CNS = test system: SNB-19 CNS

SMILES | GI50 (MDA-MB-231 breast) | TGI (MDA-MB-231 breast) | GI50 (HT29 colon) | TGI (HT29 colon) | GI50 (HCT-116 colon) | TGI (HCT-116 colon) | GI50 (CAKI-1 renal) | TGI (CAKI-1 renal) | GI50 (A498 renal) | TGI (A498 renal) | GI50 (ACHN renal) | TGI (ACHN renal) | GI50 (U251 CNS) | TGI (U251 CNS) | GI50 (SR leukemia) | GI50 (SK-MEL-2 melanoma) | TGI (SK-MEL-2 melanoma) | GI50 (SNB-19 CNS) | TGI (SNB-19 CNS) | TGI (SR leukemia)
C[n+]1cc2c3c(ccc2c2ccc4cc5c(cc4c21)OCO5)OCO3 | 0.63 µM | 1.98 µM | 0.507 µM | 1.87 µM | 0.227 µM | 0.593 µM | 0.735 µM | 2.13 µM | 1.54 µM | 3.12 µM | 0.788 µM | 2.09 µM | 0.331 µM | 1.28 µM | 0.258 µM | 1.33 µM | 2.79 µM | 1.29 µM | 2.72 µM | 
CC1(C)O[C@H]2OC3CCC(=O)CC3(O)[C@H]2O1 (some centres undefined) |  | > 100 µM |  | > 100 µM |  | > 100 µM |  | > 100 µM |  | > 100 µM |  | > 100 µM |  | > 100 µM |  |  | > 100 µM |  | > 100 µM | > 100 µM
COc1ccc(Cl)cc1Nc1nc(C(F)(F)F)ccc1C(=O)NN | 4.58 µM | > 100 µM | 26.3 µM | > 100 µM | 4.76 µM | > 100 µM | 2.74 µM | 22.7 µM | 1.51 µM | 63 µM | 2.53 µM | > 100 µM | 2.43 µM | > 100 µM | 0.404 µM | 2.7 µM | > 100 µM | 8.93 µM | > 100 µM | 3.56 µM
S=C(N/N=C/c1cc(Cl)cc(Cl)c1)NC12CC3CC(CC(C3)C1)C2 | 3.99 µM | > 100 µM | > 58.3 µM | > 100 µM | 5.24 µM | > 100 µM | 3.6 µM | 92.8 µM | 2.19 µM | 7.73 µM | 2.29 µM | 8.05 µM | 3.18 µM | > 33.6 µM | 5.02 µM | 7.74 µM | > 30.3 µM | 5.99 µM | > 100 µM | > 32 µM
Nc1cc(N)c2nc(-c3ccccc3)c(Oc3ccc(F)cc3)nc2c1 | 3.87 µM | 28.8 µM | 22.7 µM | 50.7 µM | 14.8 µM | 80.7 µM | 19.4 µM | 37 µM | 21.9 µM | 39.6 µM | 21.8 µM | 85.9 µM | 23.2 µM | 78.6 µM | 8.15 µM | 43 µM | > 100 µM | 17.3 µM | 33.8 µM | > 100 µM
Cc1ccc(C(=O)Nc2ccc(CN3CCN(C)CC3)c(C(F)(F)F)c2)cc1C#Cc1cnc(N)c2ccc(F)cc12 | 0.353 µM | 0.905 µM | 0.133 µM | 0.865 µM | 0.192 µM | 0.533 µM | 0.216 µM | 1.29 µM | 0.327 µM | 0.961 µM | 0.0791 µM | 0.401 µM | 0.275 µM | 0.717 µM | 0.262 µM | 0.27 µM | 1.44 µM | 0.641 µM | 1.81 µM | 1.3 µM
C/C(=N\O)c1ccc(Nc2cc(-n3nnc4ccccc43)nc3ccccc23)cc1 | 2.53 µM | 9.37 µM | 5.89 µM | > 100 µM | 7.64 µM | 23.7 µM | 4.26 µM | 13.7 µM | 7.25 µM | 30.8 µM | 5.82 µM | 21.8 µM | 6.68 µM | 25.3 µM | 18.7 µM | 15.6 µM | 47.6 µM | 19.9 µM | > 90.7 µM | 74.9 µM
COc1cc(/C=C2\CN(C)CC3=C2Nc2nc(SC)[nH]c(=O)c2C3c2cc(OC)c(OC)c(OC)c2)cc(OC)c1OC (centres undefined) | 3.14 µM | 13.1 µM | 2.35 µM | 5.22 µM | 1.66 µM | 3.17 µM | 2.15 µM | 4.71 µM | 9.58 µM | 21.5 µM | 1.93 µM | 3.55 µM | 1.76 µM | 4.14 µM | 1.48 µM | 9.92 µM | 33.3 µM | 8.65 µM | 21.9 µM | > 100 µM
CS(=O)(=O)c1ccc(Cl)c([N+](=O)[O-])c1 | 16.1 µM | 31.1 µM | 4.63 µM | 17 µM | 12.9 µM | 25.7 µM | 2.05 µM | 4.3 µM | 38.6 µM | > 100 µM | 16 µM | 29.7 µM | 15.2 µM | 29 µM | 15.3 µM | 23.2 µM | 41.7 µM | 12.5 µM | 25.5 µM | 46.6 µM
Fc1cccc(COc2ccc(Nc3ncnc4sc(-c5ccco5)cc34)cc2Cl)c1 | > 25 µM | > 25 µM | > 25 µM | > 25 µM | > 25 µM | > 25 µM | > 25 µM | > 25 µM | > 25 µM | > 25 µM | > 25 µM | > 25 µM | > 25 µM | > 25 µM | > 25 µM | > 25 µM | > 25 µM | > 25 µM | > 25 µM | > 25 µM
